# From patent publication US20250312365A1, “METHODS FOR INHIBITION OF SQUAMOUS CARCINOMA CELLS USING CERAMIDE MODULATORS” (The Trustees of Indiana University, priority 2024, published 2025)
# Entries after “also recorded” stand apart in the source; their conditions may differ.
# How the values were obtained:
# [1] = system: tongue squamous carcinoma cells (SCC4); test: WST-1 proliferation assay in SCC4 cells; type: cell-based, human; conditions: 0.1 μg/ml and 1 μg/ml
# Excerpt: (§1) In specific examples, colorimetric assays can be used to assess cellular viability and proliferation of cell cultures, such as MTT, WST-1, and resazurin assays. See, e.g., Präbst et al., Methods Mol Biol. 2017:1601:1-17.
# (§2) Various cell lines were exposed to PGDHC, including human gingival squamous carcinoma cells (OECM1), tongue squamous carcinoma cells (SCC4, SCC9), and healthy human gingival epithelial control cells (OBA9) in vitro.
# [2] = system: tongue squamous carcinoma cells (SCC9); test: Cell viability/proliferation assay (WST-1) in SCC9 cells; type: cell-based, human; conditions: 0.1 μg/ml and 1 μg/ml; WST-1
# Excerpt: as §1, §2
# (§3) LCL521 is a dose-dependent acid ceramidase inhibitor. Comparison of the concentration-dependent effects of an acid ceramidase inhibitor, LCL521 (MedChemExpress®), and the bacterial-isolated a15:0-15:0PE phospholipid on the viability of healthy human epithelial, OBA9, and oral squamous cancer cell lines, OECM1 and SCC9, in vitro was evaluated. […] (FIG. 15A). […] (FIG. 15B).
# [3] = system: healthy human gingival epithelial control cells (OBA9); test: Cell viability/proliferation assay (WST-1) in healthy OBA9 cells; type: cell-based; conditions: 0.1 μg/ml and 1 μg/ml; WST-1
# Excerpt: as §1, §2, §3
# NFkB = NFkB mRNA expression in OECM1 cells; type: cell-based, human
# Method: NF-kB, MMP-2, ADAM-17, and IL6 are implicated in the degradation of the expression of genes involved in the cell basement membrane and extracellular matrix of oral squamous cell carcinoma. Accordingly, the expression of NFkB, MMP2, ADAM17, and IL6 in OECM1 cells following exposure to 0.1 μg/ml PGDHC and 1 μg/ml PGDHC was determined.
# Sphingosine-1-phosphate (S1P) sphingolipid plays an essential role in the survival, migration, and degradation of the basement membrane and extracellular matrix of oral squamous cell carcinoma (Yura et al., Cancers (Basel). 2020 August; 12(8): 2062). To determine whether PGDHC can inhibit such properties, the combined effects of PGDHC and S1P on OECM1 gene expression was tested in vitro.
# MMP2 = MMP2 mRNA expression in SCC4 cells; type: cell-based, human; conditions: relative to control cells
# Method: Expression of these genes was also assessed in human tongue squamous cell carcinoma SCC4 cells.
# p-STAT3 = test: Western blot of p-STAT3 in OECM1 cells; type: cell-based, human; conditions: time course 15 minutes to 24 hours, compared to sham control
# Method: (§4) To determine the effect of PGDHC on cell markers involved in metastasis, the protein levels of p-STAT3, EMT markers, E-cadherin, N-cadherin, and Vimentin in OECM1 cells following in vitro exposure to PGDHC were determined by Western blot assay.
# E-cadherin = test: Western blot of E-cadherin in OECM1 cells; type: cell-based, human; conditions: 24 h of treatment
# Method: as §4
# ACER2 = ACER2 mRNA expression in SCC4 cells; type: cell-based, human; conditions: 0.1 or 1 μg/ml of PGDHC
# Method: Next, the effect of PGDHC on ceramidase gene expression was determined. OECM1 and SCC4 cells were exposed to 0.1 or 1 μg/ml of PGDHC. The mRNA levels of ceramidases were then measured following PGDHC exposure. PGDHC inhibited the expression of ASAH1 and ACER2 mRNAs in OECM1 (FIG. 8). […] See, e.g., Vijayan et al., J Adv Res. 2023 Dec. 21:S2090-1232(23)00403-4, Doan et al., Oncotarget. 2017 Nov. 7;8(68):112662-112674., Lai et al., Sci Rep. 2021 May 27;11(1):11221, Liu et al., Cancer Sci. 2020 July;111(7):2259-2274., and Liu et al., Front Genet. 2023 Mar. 1:14:1148437.
# [4] = system: ceramide and dihydroceramide in OECM1 cells; test: Intracellular ceramide and dihydroceramide by mass-spectrometry in OECM1 cells; type: cell-based, human
# Excerpt: Cellular levels of ceramides and dihydroceramides, and cellular accumulation or increase thereof, can be determined according to known methods, such as mass spectrometry. For example, Scherer et al., J Lipid Res. 2010 July; 51(7): 2001-2011 and Smeden et al., J Lipid Res. 2011 June; 52(6):1211-1221 describe LC/MS/MS methods for determining ceramide levels in cells.
# To assess intracellular ceramide levels, the concentration of ceramide and dihydroceramide in OECM1 cells exposed to PGDHC was measured using mass-spectrometry. […] No effect of 0.1 μg/ml of PGDHC on ceramide and dh-ceramide concentrations in OECM1 cells was observed. (FIG. 10C)
# [5] = system: healthy oral epithelial cells; test: ASAH1 expression and dihydroceramide accumulation in healthy oral epithelial cells; type: cell-based; conditions: preliminary findings
# Excerpt: Applicant performed in vitro studies to determine the effect of PEDHC and PGDHC on the proliferation of oral cancer cells via downregulation of acid ceramidase, thereby contributing to the accumulation of intracellular ceramides. […] Furthermore, PGDHC diminished metabolites in at least five different cell survival metabolomic pathways in OSCC cells but not in healthy cells. The metabolomic pathways included folate metabolism, arginine and proline metabolism, triacylglycerol biosynthesis de novo, mitochondrial election transport chain, and glycine and serine metabolism. […] In contrast to current approaches for undermining the viability of oral squamous cell carcinoma and treating OSCC, the present disclosure relates in some aspects to methods and compositions for selectively interfering with any of the growth, viability, proliferation, migration, and metastasis of oral squamous cell carcinoma.
substance,measurement,setting,value
phosphoglycerol dihydroceramide [PGDHC],proliferation of SCC4 cells,[1],did not have an observable effect
same,proliferation of SCC9 cells,[2],did not have an observable effect
same,proliferation of healthy control OBA9 cells,[3],did not have a detectable effect; also recorded: did not have an observable effect
same,expression of NFkB mRNA in OECM1 cells,NFkB; 1 μg/ml,significantly inhibited
same,expression of NFkB mRNA in OECM1 cells exposed to S1P,NFkB; in combination with S1P,significantly inhibited
same,MMP2 mRNA in SCC4 cells,MMP2,significantly diminished
same,levels of p-STAT3 protein in OECM1 cells,p-STAT3,no effect
same,protein level of E-cadherin in OECM1 cells,E-cadherin,little to no detectable effect
same,expression of ACER2 mRNA in SCC4 cells,ACER2,downregulated
same,ceramide and dh-ceramide concentrations in OECM1 cells,[4]; 0.1 μg/ml,No effect
same,"intracellular concentration of ceramide C20:0, C26:0 and C26:1","[4]; 1 μg/ml, OECM1 cells",significantly elevated
same,"intracellular concentration of dihydroceramide dhC14:0, dhC16:0, dhC18:0, dhC20:0, dhC20:1, dhC22:1, dhC22:0, dhC24:1, dhC24:0, dhC26:1","[4]; 1 μg/ml, OECM1 cells",significantly elevated
same,total intracellular concentration of dihydroceramides,"[4]; 1 μg/ml, OECM1 cells, compared to ceramides",significantly elevated; also recorded: led to the accumulation
same,accumulation of C16:0 dihydroceramide (dh-C16:0),[4]; OECM1 cells,promotes the accumulation
same,inhibition of ASAH1 expression and accumulation of dihydroceramide in healthy oral epithelial cells,[5],not observed
